biological target: T1, Human Factor XIIa (Homo sapiens, UniProt P00748); assay: Determination of FXIIa inhibition (in vitro IC50 assay, fluorogenic substrate H-DPro-Phe-Arg-AFC); assay type: biochemical; conditions: human Factor XIIa; fluorogenic substrate H-DPro-Phe-Arg-AFC at Km concentration; 5 min, 25 °C; class symbols; read-out: Human FXIIa IC50
T1 construct: purchased Enzyme Research Laboratories
T1 sequence (P00748 373-615 limits assumed): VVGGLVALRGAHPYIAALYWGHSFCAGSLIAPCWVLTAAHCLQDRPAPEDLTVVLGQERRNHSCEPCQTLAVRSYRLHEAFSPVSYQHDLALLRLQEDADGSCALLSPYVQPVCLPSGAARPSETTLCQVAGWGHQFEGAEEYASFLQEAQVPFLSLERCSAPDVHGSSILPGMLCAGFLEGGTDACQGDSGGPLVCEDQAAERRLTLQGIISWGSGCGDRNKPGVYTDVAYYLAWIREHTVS
T1 sequence (P00748 20-372 partner limits assumed): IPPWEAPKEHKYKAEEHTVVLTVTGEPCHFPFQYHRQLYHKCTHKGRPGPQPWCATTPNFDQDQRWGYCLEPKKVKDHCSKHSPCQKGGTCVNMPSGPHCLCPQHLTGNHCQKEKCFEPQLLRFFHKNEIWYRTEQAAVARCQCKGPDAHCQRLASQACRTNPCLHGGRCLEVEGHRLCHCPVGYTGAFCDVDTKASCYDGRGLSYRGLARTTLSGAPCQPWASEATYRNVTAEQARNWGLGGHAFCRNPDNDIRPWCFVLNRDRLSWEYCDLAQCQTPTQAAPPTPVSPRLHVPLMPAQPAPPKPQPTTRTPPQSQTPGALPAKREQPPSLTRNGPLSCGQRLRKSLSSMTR
In short: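 Human FXIIa incubated at 25 °C with compound and H-DPro-Phe-Arg-AFC at its Km concentration. Linear fluorescence increase monitored over 5 min, expressed as % of uninhibited activity; IC50 is concentration giving 50% inhibition.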

IC50, 0.001 to 0.01 µM:
Cn1ccc(OCC23CN(C(=O)NC(C)(C)c4ccccc4)C(CNc4cccc5c(N)nccc45)(C2)C3)cc1=O [Example 66, 1-(((1-Aminoisoquinolin-5-yl)amino)methyl)-4-(((1-methyl-2-oxo-1,2-dihydropyridin-4-yl)oxy)methyl)-N-(2-phenylpropan-2-yl)-2-azabicyclo[2.1.1]hexane-2-carboxamide]
Cn1ccc(OCC23CN(C(=O)Cc4ccc5c(c4)NC(=O)CO5)C(CNc4cccc5c(N)nccc45)(C2)C3)cc1=O [Example 17, 6-(2-(1-(((1-aminoisoquinolin-5-yl)amino)methyl)-4-(((1-methyl-2-oxo-1,2-dihydropyridin-4-yl)oxy)methyl)-2-azabicyclo[2.1.1]hexan-2-yl)-2-oxoethyl)-2H-benzo[b][1,4]oxazin-3(4H)-one]

IC50, 0.01 to 0.1 µM:
Cc1cc(OCC23CN(C(=O)C(C)c4ccc5c(c4)CCO5)C(CNc4cccc5c(N)nccc45)(C2)C3)cc(=O)n1C (centres unmarked) [Example 28, 4-((1-(((1-aminoisoquinolin-5-yl)amino)methyl)-2-(2-(2,3-dihydrobenzofuran-5-yl)propanoyl)-2-azabicyclo[2.1.1]hexan-4-yl)methoxy)-1,6-dimethylpyridin-2(1H)-one]
Cn1ccc(OCC23CN(C(=O)NC4C(C)(C)C4(C)C)C(CNc4cccc5c(N)nccc45)(C2)C3)cc1=O [Example 80, 1-(((1-aminoisoquinolin-5-yl)amino)methyl)-4-(((1-methyl-2-oxo-1,2-dihydropyridin-4-yl)oxy)methyl)-N-(2,2,3,3-tetramethylcyclopropyl)-2-azabicyclo [2.1.1]hexane-2-carboxamide]
CO[C@H]1CC[C@@H](CC(=O)N2CC3(COc4cc(C)n(C)c(=O)c4)CC2(CNc2cccc4c(N)nccc24)C3)CC1 (single isomer, unassigned) [Example 25, 4-((1-(((1-aminoisoquinolin-5-yl)amino)methyl)-2-(2-((1s,4s)-4-methoxycyclohexyl)acetyl)-2-azabicyclo[2.1.1]hexan-4-yl)methoxy)-1,6-dimethylpyridin-2(1H)-one]
Cn1ccc(OCC23CN(C(=S)Nc4ccccc4)C(CNc4cccc5c(N)nccc45)(C2)C3)cc1=O [Example 91, 1-(((1-Aminoisoquinolin-5-yl)amino)methyl)-4-(((1-methyl-2-oxo-1,2-dihydropyridin-4-yl)oxy)methyl)-N-phenyl-2-azabicyclo[2.1.1]hexane-2-carbothioamide]
Cn1ccc(OCC23CN(c4ncc(C5CC5)cn4)C(CNc4cccc5c(N)nccc45)(C2)C3)cc1=O [Example 93, 4-((1-(((1-aminoisoquinolin-5-yl)amino)methyl)-2-(5-cyclopropylpyrimidin-2-yl)-2-azabicyclo[2.1.1]hexan-4-yl)methoxy)-1-methylpyridin-2(1H)-one]
C[C@@H](NC(=O)N1CC2(COc3ccn(C)c(=O)c3)CC1(CNc1cccc3c(N)nccc13)C2)c1ccccc1 [Example 33, (R)-1-(((1-aminoisoquinolin-5-yl)amino)methyl)-4-(((1-methyl-2-oxo-1,2-dihydropyridin-4-yl)oxy)methyl)-N-(1-phenylethyl)-2-azabicyclo[2.1.1]hexane-2-carboxamide]
Cn1ccc(OCC23CN(C(=O)C[C@@H]4CCOC4)C(CNc4cccc5c(N)nccc45)(C2)C3)cc1=O [Example 11, (S)-4-((1-(((1-aminoisoquinolin-5-yl)amino)methyl)-2-(2-(tetrahydrofuran-3-yl)acetyl)-2-azabicyclo[2.1.1]hexan-4-yl)methoxy)-1-methylpyridin-2(1H)-one]
Cc1cc(OCC23CN(C(=O)N4CC5(CCOCC5)C4)C(CNc4cccc5c(N)nccc45)(C2)C3)cc(=O)n1C [Example 46, 4-((1-(((1-aminoisoquinolin-5-yl)amino)methyl)-2-(7-oxa-2-azaspiro[3.5]nonane-2-carbonyl)-2-azabicyclo[2.1.1]hexan-4-yl)methoxy)-1,6-dimethylpyridin-2(1H)-one]
Cc1cc(OCC23CN(C(=O)N4CC(C5CCOCC5)C4)C(CNc4cccc5c(N)nccc45)(C2)C3)cc(=O)n1C [Example 72, 4-((1-(((1-aminoisoquinolin-5-yl)amino)methyl)-2-(3-(tetrahydro-2H-pyran-4-yl)azetidine-1-carbonyl)-2-azabicyclo[2.1.1]hexan-4-yl)methoxy)-1,6-dimethylpyridin-2(1H)-one]
Cc1cc(OCC23CN(C(=O)CC45CCC(CC4)C5)C(CNc4cccc5c(N)nccc45)(C2)C3)cc(=O)n1C [Example 22, 4-((1-(((1-aminoisoquinolin-5-yl)amino)methyl)-2-(2-(bicyclo[2.2.1]heptan-1-yl)acetyl)-2-azabicyclo[2.1.1]hexan-4-yl)methoxy)-1,6-dimethylpyridin-2(1H)-one]
Cn1ccc(OCC23CN(C(=O)N4Cc5ccccc5C4)C(CNc4cccc5c(N)nccc45)(C2)C3)cc1=O [Example 50, 4-((1-(((1-aminoisoquinolin-5-yl)amino)methyl)-2-(isoindoline-2-carbonyl)-2-azabicyclo[2.1.1]hexan-4-yl)methoxy)-1-methylpyridin-2(1H)-one]
Cc1cc(OCC23CN(C(=O)N(C)C[C@H]4CCOC4)C(CNc4cccc5c(N)nccc45)(C2)C3)cc(=O)n1C [Example 48, (R)-1-(((1-aminoisoquinolin-5-yl)amino)methyl)-4-(((1,6-dimethyl-2-oxo-1,2-dihydropyridin-4-yl)oxy)methyl)-N-methyl-N-((tetrahydrofuran-3-yl)methyl)-2-azabicyclo[2.1.1]hexane-2-carboxamide]
Cc1cc(OCC23CN(C(=O)CC4CCC(F)(F)CC4)C(CNc4cccc5c(N)nccc45)(C2)C3)cc(=O)n1C [Example 23, 4-((1-(((1-aminoisoquinolin-5-yl)amino)methyl)-2-(2-(4,4-difluorocyclohexyl)acetyl)-2-azabicyclo[2.1.1]hexan-4-yl)methoxy)-1,6-dimethylpyridin-2(1H)-one]
Cn1ccc(OCC23CN(C(=O)NC4(c5ccccc5)CCOCC4)C(CNc4cccc5c(N)nccc45)(C2)C3)cc1=O [Example 64, 1-(((1-aminoisoquinolin-5-yl)amino)methyl)-4-(((1-methyl-2-oxo-1,2-dihydropyridin-4-yl)oxy)methyl)-N-(4-phenyltetrahydro-2H-pyran-4-yl)-2-azabicyclo[2.1.1]hexane-2-carboxamide]
Cn1ccc(OCC23CN(C(=O)C4(Cc5ccccc5)CC4)C(CNc4cccc5c(N)nccc45)(C2)C3)cc1=O [Example 8, 4-((1-(((1-aminoisoquinolin-5-yl)amino)methyl)-2-(1-benzylcyclopropane-1-carbonyl)-2-azabicyclo[2.1.1]hexan-4-yl)methoxy)-1-methylpyridin-2(1H)-one]

IC50, 0.1 to 0.3 µM:
Cn1ccc(OCC23CN(C(=O)N4CCc5ccccc5C4)C(CNc4cccc5c(N)nccc45)(C2)C3)cc1=O [Example 37, 4-((1-(((1-aminoisoquinolin-5-yl)amino)methyl)-2-(1,2,3,4-tetrahydroisoquinoline-2-carbonyl)-2-azabicyclo[2.1.1]hexan-4-yl)methoxy)-1-methylpyridin-2(1H)-one]
Cn1ccc(OCC23CC(CNc4cccc5c(N)nccc45)(CN2C(=O)CCC2CCCCC2)C3)cc1=O [Example 102, 4-((4-(((1-Aminoisoquinolin-5-yl)amino)methyl)-2-(3-cyclohexylpropanoyl)-2-azabicyclo[2.1.1]hexan-1-yl)methoxy)-1-methylpyridin-2(1H)-one]
Cn1ccc(OCC23CN(C(=O)C4(c5ccccc5)CC4)C(CNc4cccc5c(N)nccc45)(C2)C3)cc1=O [Example 18, 4-((1-(((1-aminoisoquinolin-5-yl)amino)methyl)-2-(1-phenylcyclopropane-1-carbonyl)-2-azabicyclo[2.1.1]hexan-4-yl)methoxy)-1-methylpyridin-2(1H)-one]

IC50, 40 to 100 µM:
Cc1ncccc1NCC12CC(COc3cc(C)n(C)c(=O)c3)(CN1C(=O)NC1(c3ccccc3)CC1)C2 [Example 56, 4-(((1,6-dimethyl-2-oxo-1,2-dihydropyridin-4-yl)oxy)methyl)-1-(((2-methylpyridin-3-yl)amino)methyl)-N-(1-phenylcyclopropyl)-2-azabicyclo[2.1.1]hexane-2-carboxamide]

IC50, 10 to 40 µM:
Cc1cc(OCC23CN(C(=O)NC4(c5ccccc5)CC4)C(CNc4ccc(N)nc4)(C2)C3)cc(=O)n1C [Example 58, 1-(((6-aminopyridin-3-yl)amino)methyl)-4-(((1,6-dimethyl-2-oxo-1,2-dihydropyridin-4-yl)oxy)methyl)-N-(1-phenylcyclopropyl)-2-azabicyclo[2.1.1]hexane-2-carboxamide]

IC50, 0.0001 to 0.001 µM:
Cn1ccc(OCC23CN(C(=O)Nc4ccc5c(c4)CCCO5)C(CNc4cccc5c(N)nccc45)(C2)C3)cc1=O [Example 52, 1-(((1-aminoisoquinolin-5-yl)amino)methyl)-N-(chroman-6-yl)-4-(((1-methyl-2-oxo-1,2-dihydropyridin-4-yl)oxy)methyl)-2-azabicyclo[2.1.1]hexane-2-carboxamide]

— US20260347347A1, “2-AZA-AND 2-OXABICYCLO[2.1.1]HEXANE DERIVATIVES AS FACTOR XIIA ENZYME INHIBITORS” (KALVISTA PHARMACEUTICALS LIMITED, priority 2022, published 2026)
